Assay results from patent US20240270762A1, “PENICILLIN-BINDING PROTEIN INHIBITORS” (priority 2021, published 2024).
≈ marks a conversion by molar mass, not a printed value. Like-named read-outs stand apart in the source and are kept apart here.

Tests used:
[1] = tested on: N. gonorrhoeae FA1090; assay: Liquid broth MIC in Fastidious broth; settings: Neisseria gonorrhoeae
[2] = tested on: N. gonorrhoeae MS11; assay: Liquid broth MIC in Fastidious broth; settings: Neisseria gonorrhoeae
Procedure: Additional antibacterial testing of the series was performed in 8 reference strains of N. gonorrhoeae (ATCC 49226, FA1090, MS 11, WHO G, WHO L, WHO M, WHO K, WHO X, WHO Z, WHO Q, CDC-0197). ATCC 49226, FA1090, MS11, WHO G, WHO L, and WHO M produce wild type or wild-type like PBP2. WHO K, WHO X, WHO Z, WHO Q, and CDC-0197 produce mosaic PBP2. Liquid broth-based assays were used for antibacterial testing of PBP inhibitors in Neisseria gonorrhoeae. Briefly, cryo-preserved bacterial cultures of clinical strains were streaked for isolation on Chocolate Agar (72 g/L (2×) GC Agar Base (BD #228950) and 2% (2×) Hemoglobin was autoclaved at 121° C. for 20 minutes to sterilize. Once cooled to ˜50° C. the 2×GC Agar Base and 2× Hemoglobin solutions are combined and 1% IsoVitaleX Enrichment (BD #211876) was added to the solution). Strains were incubated at 36° C. and 5% CO2 to allow growth of colonies, 24 hours before inoculum preparation. 2-fold serial dilutions of test compounds were conducted in a 96 well plate with a final volume of 75 μL per well at 2-fold the final desired concentration in Fastidious broth (Remel #R07664). For preparation of assay inoculum, a direct suspension was prepared by aseptically swabbing 10-15 colonies from agar plates into culture tubes containing 2 mL of fresh sterile saline. After the dilution plates were set up, direct suspensions were then diluted in a cuvette containing sterile saline and the optical density was measured at 600 nm. Inocula were diluted such that 75 μL of this culture in Fastidious broth results in a starting bacterial concentration of 5×10^5 CFU/mL when added to the dilution plates. The plates were incubated for ˜24 hours at 36° C. and 5% CO2.

[3] = tested on: A. baumannii ATCC 19606; assay: microbe, parasite or virus in culture; assay type: cell-based; settings: Acinetobacter baumannii, ATCC19606, read-out: MIC, A. baumannii ATCC 19606
[4] = tested on: A. baumannii CDC-0045; assay: microbe, parasite or virus in culture; assay type: cell-based; settings: Acinetobacter baumannii, CDC0045, read-out: MIC, A. baumannii CDC-0045
[5] = tested on: N. gonorrhoeae WHO Z; assay: Liquid broth MIC in Fastidious broth; settings: Neisseria gonorrhoeae
[6] = tested on: P. aeruginosa ATCC 35151; assay: microbe, parasite or virus in culture; assay type: cell-based; settings: Pseudomonas aeruginosa, ATCC35151, read-out: Minimum inhibitory concentration, P. aeruginosa ATCC 35151
[7] = tested on: A. baumannii CDC-0036; assay: microbe, parasite or virus in culture; assay type: cell-based; settings: Acinetobacter baumannii, CDC0036, read-out: MIC, A. baumannii CDC-0036
[8] = tested on: N. gonorrhoeae WHO L; assay: Liquid broth MIC in Fastidious broth; settings: Neisseria gonorrhoeae
[9] = tested on: N. gonorrhoeae WHO Q; assay: Liquid broth MIC in Fastidious broth; settings: Neisseria gonorrhoeae
[10] = tested on: N. gonorrhoeae WHO K; assay: Liquid broth MIC in Fastidious broth; settings: Neisseria gonorrhoeae
[11] = tested on: N. gonorrhoeae WHO M; assay: Liquid broth MIC in Fastidious broth; settings: Neisseria gonorrhoeae
[12] = tested on: P. aeruginosa (ΔmexAB-oprM); assay: Broth microdilution MIC in iron-depleted CAMHB (IDM); assay type: cell-based; settings: Pseudomonas aeruginosa; iron-depleted CAMHB (IDM); […]; read-out: Minimum inhibitory concentration, P. aeruginosa ΔmexAB-oprM
[13] = tested on: A. baumannii 1258916; assay: microbe, parasite or virus in culture; assay type: cell-based, Acinetobacter baumannii; settings: Acinetobacter baumannii, 1258916, read-out: MIC, A. baumannii 1258916
[14] = FA1090, read-out: Minimum Inhibitory Concentration (MIC), N. gonorrhoeae FA 1090
[15] = MS11, read-out: Minimum Inhibitory Concentration (MIC), N. gonorrhoeae MS11
[16] = read-out: Minimum Inhibitory Concentration (MIC), N. gonorrhoeae WHO Z
[17] = read-out: Minimum Inhibitory Concentration (MIC), N. gonorrhoeae WHO L
[18] = read-out: Minimum Inhibitory Concentration (MIC), N. gonorrhoeae WHO Q
[19] = read-out: Minimum Inhibitory Concentration (MIC), N. gonorrhoeae WHO K
[20] = read-out: Minimum Inhibitory Concentration (MIC), N. gonorrhoeae WHO M
[21] = FA1090, read-out: Minimum Inhibitory Concentration, FA 1090
[22] = MS11, read-out: Minimum Inhibitory Concentration, MS11
[23] = read-out: Minimum Inhibitory Concentration, WHO Z
[24] = read-out: Minimum Inhibitory Concentration, WHO L
[25] = read-out: Minimum Inhibitory Concentration, WHO Q
[26] = read-out: Minimum Inhibitory Concentration, WHO K
[27] = read-out: Minimum Inhibitory Concentration, WHO M

SMILES | MIC [1, 14] [µg/mL] | MIC [2, 15] [µg/mL] | MIC [3] [µg/mL] | MIC [4] [µg/mL] | MIC [5, 16] [µg/mL] | MIC [6] [µg/mL] | MIC [7] [µg/mL] | MIC [8, 17] [µg/mL] | MIC [9, 18] [µg/mL] | MIC [10, 19] [µg/mL] | MIC [11, 20] [µg/mL] | MIC [12] [µg/mL] | MIC [13] [µg/mL] | MIC [1, 21] [µg/mL] | MIC [2, 22] [µg/mL] | MIC [5, 23] [µg/mL] | MIC [8, 24] [µg/mL] | MIC [9, 25] [µg/mL] | MIC [10, 26] [µg/mL] | MIC [11, 27] [µg/mL]
O=C(NCCN1CCN(C(=O)NC(C(=O)N[C@H]2Cc3ccc(F)c(C(=O)O)c3OB2O)c2cc(F)c(O)c(O)c2Cl)C1=O)c1ccc(O)cc1 (stereo partly drawn) [Example 243, (3R)-3-(2-(2-chloro-5-fluoro-3,4-dihydroxyphenyl)-2-(3-(2-(4-hydroxybenzamido)ethyl)-2-oxoimidazolidine-1-carboxamido)acetamido)-7-fluoro-2-hydroxy-3,4-dihydro-2H-benzo[e][1,2]oxaborinine-8-carboxylic acid] | 4 to 8 (≈ 5.57 to 11.1 µM) | 16 to 32 (≈ 22.3 to 44.6 µM) | < 1 | < 1 | 16 to 32 (≈ 22.3 to 44.6 µM) | < 1 | < 1 | > 64 | > 64 | > 64 | 4 to 8 (≈ 5.57 to 11.1 µM) | < 1 | < 1 |  |  |  |  |  |  | 
O=C(NCCN1CCN(C(=O)NC(C(=O)N[C@H]2Cc3ccc(F)c(C(=O)O)c3OB2O)c2cc(F)c(O)c(O)c2Cl)C1=O)c1cccc(O)c1 (stereo partly drawn) [Example 244, (3R)-3-(2-(2-chloro-5-fluoro-3,4-dihydroxyphenyl)-2-(3-(2-(3-hydroxybenzamido)ethyl)-2-oxoimidazolidine-1-carboxamido)acetamido)-7-fluoro-2-hydroxy-3,4-dihydro-2H-benzo[e][1,2]oxaborinine-8-carboxylic acid] | 4 to 8 (≈ 5.57 to 11.1 µM) | > 64 | < 1 | 2 to 4 (≈ 2.79 to 5.57 µM) | > 64 | < 1 | 2 to 4 (≈ 2.79 to 5.57 µM) | > 64 | > 64 | > 64 | 16 to 32 (≈ 22.3 to 44.6 µM) | < 1 | < 1 |  |  |  |  |  |  | 
O=C(NCCN1CCN(C(=O)NC(C(=O)N[C@H]2Cc3ccc(F)c(C(=O)O)c3OB2O)c2cc(F)c(O)c(O)c2Cl)C1=O)c1ccncc1 (stereo partly drawn) [Example 245, (3R)-3-(2-(2-chloro-5-fluoro-3,4-dihydroxyphenyl)-2-(3-(2-(isonicotinamido)ethyl)-2-oxoimidazolidine-1-carboxamido)acetamido)-7-fluoro-2-hydroxy-3,4-dihydro-2H-benzo[e][1,2]oxaborinine-8-carboxylic acid] | 4 to 8 (≈ 5.69 to 11.4 µM) | 16 to 32 (≈ 22.8 to 45.5 µM) | < 1 | < 1 | > 64 | < 1 | 2 to 4 (≈ 2.85 to 5.69 µM) | > 64 | > 64 | > 64 | 16 to 32 (≈ 22.8 to 45.5 µM) | < 1 | < 1 |  |  |  |  |  |  | 
O=C(NCCN1CCN(C(=O)NC(C(=O)N[C@H]2Cc3ccc(F)c(C(=O)O)c3OB2O)c2cc(F)c(O)c(O)c2Cl)C1=O)c1cccnc1 (stereo partly drawn) [Example 246, (3R)-3-(2-(2-chloro-5-fluoro-3,4-dihydroxyphenyl)-2-(3-(2-(nicotinamido)ethyl)-2-oxoimidazolidine-1-carboxamido)acetamido)-7-fluoro-2-hydroxy-3,4-dihydro-2H-benzo[e][1,2]oxaborinine-8-carboxylic acid] |  |  | < 1 | < 1 |  | < 1 | 2 to 4 (≈ 2.85 to 5.69 µM) |  |  |  |  | < 1 | < 1 | 4 to 8 (≈ 5.69 to 11.4 µM) | 16 to 32 (≈ 22.8 to 45.5 µM) | 16 to 32 (≈ 22.8 to 45.5 µM) | > 64 | > 64 | > 64 | 16 to 32 (≈ 22.8 to 45.5 µM)
O=C(NCCN1CCN(C(=O)NC(C(=O)N[C@H]2Cc3ccc(F)c(C(=O)O)c3OB2O)c2cc(F)c(O)c(O)c2Cl)C1=O)c1nccs1 (stereo partly drawn) [Example 247, (3R)-3-(2-(2-chloro-5-fluoro-3,4-dihydroxyphenyl)-2-(2-oxo-3-(2-(thiazole-2-carboxamido)ethyl)imidazolidine-1-carboxamido)acetamido)-7-fluoro-2-hydroxy-3,4-dihydro-2H-benzo[e][1,2]oxaborinine-8-carboxylic acid] |  |  | < 1 | < 1 |  | < 1 | < 1 |  |  |  |  | < 1 | < 1 | 4 to 8 (≈ 5.64 to 11.3 µM) | 16 to 32 (≈ 22.6 to 45.1 µM) | 16 to 32 (≈ 22.6 to 45.1 µM) | > 64 | 16 to 32 (≈ 22.6 to 45.1 µM) | > 64 | 16 to 32 (≈ 22.6 to 45.1 µM)
O=C(O)c1c(F)ccc2c1OB(O)[C@@H](NC(=O)C(NC(=O)N1CCN(CCNC(=O)[C@@H]3CCCN3)C1=O)c1cc(F)c(O)c(O)c1Cl)C2 (stereo partly drawn) [Example 248, (3R)-3-(2-(2-chloro-5-fluoro-3,4-dihydroxyphenyl)-2-(2-oxo-3-(2-((S)-pyrrolidine-2-carboxamido)ethyl)imidazolidine-1-carboxamido)acetamido)-7-fluoro-2-hydroxy-3,4-dihydro-2H-benzo[e][1,2]oxaborinine-8-carboxylic acid] |  |  | < 1 | < 1 |  | < 1 | 2 to 4 (≈ 2.88 to 5.76 µM) |  |  |  |  | < 1 | < 1 | 4 to 8 (≈ 5.76 to 11.5 µM) | 16 to 32 (≈ 23 to 46.1 µM) | 16 to 32 (≈ 23 to 46.1 µM) | > 64 | 16 to 32 (≈ 23 to 46.1 µM) | 16 to 32 (≈ 23 to 46.1 µM) | 4 to 8 (≈ 5.76 to 11.5 µM)
O=C(NCCN1CCN(C(=O)NC(C(=O)N[C@H]2Cc3ccc(F)c(C(=O)O)c3OB2O)c2cc(F)c(O)c(O)c2Cl)C1=O)Nc1cccc(O)c1 (stereo partly drawn) [Example 249, (3R)-3-(2-(2-chloro-5-fluoro-3,4-dihydroxyphenyl)-2-(3-(2-(3-(3-hydroxyphenyl)ureido)ethyl)-2-oxoimidazolidine-1-carboxamido)acetamido)-7-fluoro-2-hydroxy-3,4-dihydro-2H-benzo[e][1,2]oxaborinine-8-carboxylic acid] |  |  | < 1 | < 1 |  | < 1 | 2 to 4 (≈ 2.73 to 5.46 µM) |  |  |  |  | < 1 | < 1 | 1 to 2 (≈ 1.36 to 2.73 µM) | 16 to 32 (≈ 21.8 to 43.7 µM) | 16 to 32 (≈ 21.8 to 43.7 µM) | > 64 | > 64 | > 64 | 16 to 32 (≈ 21.8 to 43.7 µM)
O=C(NCCN1CCN(C(=O)NC(C(=O)N[C@H]2Cc3ccc(F)c(C(=O)O)c3OB2O)c2cc(F)c(O)c(O)c2Cl)C1=O)Nc1ccncc1 (stereo partly drawn) [Example 250, (3R)-3-(2-(2-chloro-5-fluoro-3,4-dihydroxyphenyl)-2-(2-oxo-3-(2-(3-(pyridin-4-yl)ureido)ethyl)imidazolidine-1-carboxamido)acetamido)-7-fluoro-2-hydroxy-3,4-dihydro-2H-benzo[e][1,2]oxaborinine-8-carboxylic acid] |  |  | < 1 | < 1 |  | < 1 | 2 to 4 (≈ 2.79 to 5.57 µM) |  |  |  |  | < 1 | < 1 | 4 to 8 (≈ 5.57 to 11.1 µM) | 16 to 32 (≈ 22.3 to 44.6 µM) | > 64 | > 64 | > 64 | > 64 | 16 to 32 (≈ 22.3 to 44.6 µM)
O=C(NCCN1CCN(C(=O)NC(C(=O)N[C@H]2Cc3ccc(F)c(C(=O)O)c3OB2O)c2cc(F)c(O)c(O)c2Cl)C1=O)Nc1cccnc1 (stereo partly drawn) [Example 251, (3R)-3-(2-(2-chloro-5-fluoro-3,4-dihydroxyphenyl)-2-(2-oxo-3-(2-(3-(pyridin-3-yl)ureido)ethyl)imidazolidine-1-carboxamido)acetamido)-7-fluoro-2-hydroxy-3,4-dihydro-2H-benzo[e][1,2]oxaborinine-8-carboxylic acid] |  |  | < 1 | < 1 |  | < 1 | 2 to 4 (≈ 2.79 to 5.57 µM) |  |  |  |  | < 1 | < 1 | 4 to 8 (≈ 5.57 to 11.1 µM) | 16 to 32 (≈ 22.3 to 44.6 µM) | 16 to 32 (≈ 22.3 to 44.6 µM) | > 64 | > 64 | > 64 | 16 to 32 (≈ 22.3 to 44.6 µM)
O=C(NCCCN1CCN(C(=O)N[C@H](C(=O)N[C@H]2Cc3ccc(F)c(C(=O)O)c3OB2O)c2cc(F)c(O)c(O)c2Cl)C1=O)c1ccccc1 [Example 252, (R)-3-((S)-2-(3-(3-benzamidopropyl)-2-oxoimidazolidine-1-carboxamido)-2-(2-chloro-5-fluoro-3,4-dihydroxyphenyl)acetamido)-7-fluoro-2-hydroxy-3,4-dihydro-2H-benzo[e][1,2]oxaborinine-8-carboxylic acid] |  |  | > 128 | > 128 |  | 2 to 4 (≈ 2.79 to 5.59 µM) | > 128 |  |  |  |  | > 128 | > 128 | > 64 | > 64 | > 64 | > 64 | > 64 | > 64 | > 64
